Assay results published in US6458834B2, “Pentacyclic triterpenes” (Micro Flo Company, priority 1998, dated 2002).
Read-outs that look alike come from different tables or passages of the source.

Legend:
human leucocyte elastase = target: T1, human leucocyte elastase (Homo sapiens, UniProt P08246); experiment: Human leucocyte elastase (HLE) inhibition, MeO-Suc-Ala-Ala-Pro-Val-pNA substrate; type: biochemical
T1 construct: purchased Elastin Products
T1 sequence (P08246 30-267): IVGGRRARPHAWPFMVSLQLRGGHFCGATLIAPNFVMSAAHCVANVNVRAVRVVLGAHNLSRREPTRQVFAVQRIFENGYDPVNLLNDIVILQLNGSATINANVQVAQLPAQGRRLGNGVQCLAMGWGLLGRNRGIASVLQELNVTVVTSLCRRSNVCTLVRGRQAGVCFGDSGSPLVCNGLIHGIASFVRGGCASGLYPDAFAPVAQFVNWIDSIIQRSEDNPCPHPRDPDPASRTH
Protocol: Stock solutions were mixed to yield a reaction mixture consisting of 0.5 mM MeO-Suc-Ala-Ala-Pro-Val-pNA (Sigma) and […] human leucocyte elastase (Elastin Products) in 0.1 M Tris, 0.5 M NaCl and 3% DMSO (v/v) at a pH of 7.5. Test compounds were solubilized in DMSO. Equal volumes of enzyme and inhibitor were mixed and allowed to incubate for 15 minutes at room temperature. The reaction was started by the addition of a third equal volume containing substrate. Reactions were carried out in microliter plates.

plasmin = plasmin (Homo sapiens, UniProt P00747); experiment: plasmin assay; type: biochemical; conditions: for inhibition at 22 µM: measured at 22 μM
From the text: (§1) Thus, PTs appear to bind non-covalently to hydrophobic domains of enzymes and either block an access to the enzyme active site or cause conformational change, both resulting in the enzyme's inability to perform its function.

urokinase = urokinase (Homo sapiens, UniProt P00749); experiment: urokinase assay; type: biochemical; conditions: for inhibition at 22 µM: measured at 22 μM
From the text: as §1

thrombin = thrombin (Homo sapiens, UniProt P00734); experiment: thrombin assay; type: biochemical
From the text: as §1

trypsin = target: T2, trypsin (Bos taurus, UniProt P00760); experiment: trypsin assay; type: biochemical
T2 construct: gene PRSS1
T2 sequence (P00760 24-246): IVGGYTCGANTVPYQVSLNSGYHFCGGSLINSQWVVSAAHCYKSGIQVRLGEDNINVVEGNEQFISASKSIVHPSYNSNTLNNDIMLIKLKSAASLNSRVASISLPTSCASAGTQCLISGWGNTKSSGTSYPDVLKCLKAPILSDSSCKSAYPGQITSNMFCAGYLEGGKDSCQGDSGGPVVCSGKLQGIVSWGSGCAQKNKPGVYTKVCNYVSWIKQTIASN
From the text: as §1

mites = conditions: cited from earlier work
[1] = 0.1 M Tris, 0.5 M NaCl, 3% DMSO, pH 7.5, 15 min preincubation at room temperature, read-out: IC50

Sequence of plasmin (P00747 581-810 limits assumed, species assumed): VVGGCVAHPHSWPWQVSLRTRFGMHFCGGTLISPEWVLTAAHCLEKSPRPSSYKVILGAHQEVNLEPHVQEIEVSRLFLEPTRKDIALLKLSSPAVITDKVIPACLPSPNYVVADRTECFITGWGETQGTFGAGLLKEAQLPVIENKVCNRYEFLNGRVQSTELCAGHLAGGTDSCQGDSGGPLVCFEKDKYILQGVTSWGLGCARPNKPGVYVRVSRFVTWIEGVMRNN
Sequence of plasmin (P00747 97-580 partner limits assumed, species assumed): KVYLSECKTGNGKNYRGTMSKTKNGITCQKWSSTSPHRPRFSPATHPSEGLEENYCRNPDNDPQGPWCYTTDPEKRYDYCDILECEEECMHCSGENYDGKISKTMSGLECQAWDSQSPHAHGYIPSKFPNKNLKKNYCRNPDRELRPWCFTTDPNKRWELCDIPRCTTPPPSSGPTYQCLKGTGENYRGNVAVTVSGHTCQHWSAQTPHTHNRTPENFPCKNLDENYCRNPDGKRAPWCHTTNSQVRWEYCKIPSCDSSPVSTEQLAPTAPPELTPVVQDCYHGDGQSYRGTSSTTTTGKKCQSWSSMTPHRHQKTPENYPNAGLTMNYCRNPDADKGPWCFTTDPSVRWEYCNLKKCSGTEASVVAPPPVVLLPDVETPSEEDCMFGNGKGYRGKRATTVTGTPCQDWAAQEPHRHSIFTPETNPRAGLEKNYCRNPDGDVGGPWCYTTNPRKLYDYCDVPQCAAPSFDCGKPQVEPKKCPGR

Row | IC50 (human leucocyte elastase; [1]) [µM] | Compound | IC50 (human leucocyte elastase) [µM] | further results
1 | 6.3 | C=C(C)[C@@H]1CC[C@]2(COC(=O)CCC(=O)O)CC[C@]3(C)[C@H](CC[C@@H]4[C@@]5(C)CC[C@H](O)C(C)(C)[C@@H]5CC[C@]43C)[C@@H]12 [Example 8, 28-Succinylbetulin] | – | –
2 | 4.9 | COC(=O)[C@]12CC[C@@H](C)[C@H](C)[C@H]1C1=CC[C@@H]3[C@@]4(C)CC[C@H](O)C(C)(C)[C@@H]4CC[C@@]3(C)[C@]1(C)CC2 [Example 18, Ursolic acid, Me ester] | – | –
3 | – | C=C(C)[C@@H]1CC[C@]2(C)CC[C@]3(C)[C@H](CC[C@@H]4[C@@]5(C)CC[C@H](O)C(C)(C)[C@@H]5CC[C@]43C)[C@@H]12 [Example 5, Lupeol] | 8.4 | –
4 | 5.4 | CC1(C)CC[C@]2(C)CC[C@]3(C)C(=CC[C@@H]4[C@@]5(C)CC[C@H](O)C(C)(C)[C@@H]5CC[C@]43C)[C@@H]2C1 [Example 15, β-Amyrin] | – | –
5 | – | C[C@H]1[C@H](C)CC[C@]2(CO)CC[C@]3(C)C(=CC[C@@H]4[C@@]5(C)CC[C@H](O)C(C)(C)[C@@H]5CC[C@]43C)[C@H]12 [Example 16, Uvaol] | 4.5 | –
6 | – | C=C(C)C1CCC2(C(=O)O)CCC3(C)C(CCC4C5(C)CCC(OC(C)=O)C(C)(C)C5CCC43C)C12 (stereo not shown) [Example 11, Acetylbetulinic acid] | 7 | –
7 | – | CC1(C)CC[C@]2(C(=O)O)[C@H](O)C[C@]3(C)C(=CC[C@@H]4[C@@]5(C)CC[C@H](O)[C@@](C)(CO)[C@@H]5CC[C@]43C)[C@@H]2C1 [Example 24, Caulophyllogenin] | – | inhibition of HLE at a single concentration (human leucocyte elastase; @ 21°): 0% @ 21°
8 | 7.3 | C=C(C)C1CCC2(C(=O)OC)CCC3(C)C(CCC4C5(C)CCC(OS(C)(=O)=O)C(C)(C)C5CCC43C)C12 (stereo not shown) [Example 14, Methyl ester of 3-methanesulfonylbetulinic acid] | – | –
9 | 5.7 | C=C(C)[C@@H]1CC[C@]2(C(=O)OC)CC[C@]3(C)[C@H](CC[C@@H]4[C@@]5(C)CC[C@H](O)C(C)(C)[C@@H]5CC[C@]43C)[C@@H]12 [Example 10, Methyl ester of betulinic acid] | – | –
10 | – | C=C(C)[C@@H]1CC[C@]2(CO)CC[C@]3(C)[C@H](CC[C@@H]4[C@@]5(C)CC[C@H](O)C(C)(C)[C@@H]5CC[C@]43C)[C@@H]12 [Example 7, Betulin] | 5 | –
11 | – | CC1(C)CC[C@]2(C(=O)O)CC[C@]3(C)C(=CC[C@@H]4[C@@]5(C)CC[C@H](O)C(C)(C)[C@@H]5CC[C@]43C)[C@@H]2C1 [Example 20, Oleanolic acid] | – | inhibition at 22 µM (plasmin): 25%; inhibition at 22 µM (urokinase): 40%
12 | – | CC1(C)CC[C@]2(C(=O)O)CC[C@]3(C)C(=CC[C@@H]4[C@@]5(C)CC[C@H](O)[C@@](C)(CO)[C@@H]5CC[C@]43C)[C@@H]2C1 [Example 23, Hederagenin] | 16.8 | –
13 | – | C[C@H]1[C@H](C)CC[C@]2(C(=O)O)CC[C@]3(C)C(=CC[C@@H]4[C@@]5(C)CC[C@H](O)C(C)(C)[C@@H]5CC[C@]43C)[C@H]12 [Example 17, Ursolic acid] | 7.7 | inhibition at 22 µM (plasmin): 43%; inhibition at 22 µM (urokinase): 83%; effects towards the mites and their survival (mites): toxicity and feeding deterrent effects; reduction of ingestion time on diet containing ursolic acid (mites; diet containing ursolic acid): about 30%
14 | – | C=C(C)C1CCC2(C(=O)O)CCC3(C)C(CCC4C5(C)CCC(OS(C)(=O)=O)C(C)(C)C5CCC43C)C12 (stereo not shown) [Example 13, Methanesulfonylbetulinic acid] | 11.2 | melting point: 210 to 212 °C
15 | 11 | C=C(C)[C@@H]1CC[C@]2(C(=O)O)CC[C@]3(C)[C@H](CC[C@@H]4[C@@]5(C)CCC(=O)C(C)(C)[C@@H]5CC[C@]43C)[C@@H]12 [Example 12, 3-Ketobetulinic acid] | – | –

Row | Compound | IC50 (human leucocyte elastase; [1]) [µM] | IC50 (human leucocyte elastase) [µM] | further results
16 | Lupeol acetate [Example 6] | 14.9 | – | –
17 | COC(=O)[C@]12CCC(C)(C)C[C@H]1C1=CC[C@@H]3[C@@]4(C)CC[C@H](O)C(C)(C)[C@@H]4CC[C@@]3(C)[C@]1(C)CC2 [Example 21, Oleanolic acid, Me ester] | 8.5 | – | –
18 | C=C(C)[C@@H]1CC[C@]2(C(=O)O)CC[C@]3(C)[C@H](CC[C@@H]4[C@@]5(C)CC[C@H](O)C(C)(C)[C@@H]5CC[C@]43C)[C@@H]12 [Example 9, Betulinic acid] | 3.3 | – | IC50 (plasmin): 6.2 µM; IC50 (urokinase): 5 µM; IC50 (thrombin): 2300 nM; IC50 (trypsin): 8.5 µM
